The source of these data is ChEMBL document CHEMBL4350972, “Design, synthesis and pharmacological evaluation of a novel mTOR-targeted anti-EV71 agent” (Eur J Med Chem, 2019).

≈ marks a conversion by molar mass, not a printed value. Calls of active or inactive are those of the source. The calls are words filed in the database; no cut-off is given here.

The nature of series [1]: Cytotoxicity against human RD cells incubated for 4 days by CellTiter-Glo luminescence assay. The series is classed as cell-based.
A further series has as its target mTORC1 (Homo sapiens) (UniProt P42345+Q8N122+Q9BVC4). The series can be described thus: Inhibition of mTORC1 in human RD cells assessed as reduction in P70S6K1 phosphorylation at Thr 389 site at 20 uM incubated for 2 hrs in presence of insulin by Western blot analysis. The series is classed as cell-based. (In western blotting, separated proteins are transferred to a membrane and probed.)

The subject of a further series is Enterovirus A71. The series can be described thus: Antiviral activity against Enterovirus A71 infected in human RD cells assessed as reduction in virus-induced cell death incubated for 4 days by CellTiter-Glo luminescence assay. It counts as functional, organism-based. The conditions noted are these: Enterovirus A, 96 h. Background: Cellular ATP, detected with luciferase, serves as a proxy for viable cell number.

The nature of series [2]: Ratio of aqueous solubility for Torin2 to aqueous solubility for test compound. The series is classed as physicochemical. The conditions noted are these: buffer.
A further series has as its target mTORC2 (Homo sapiens) (UniProt P42345+Q6R327+Q9BVC4+Q9BPZ7). The experiment in a line: Inhibition of mTORC2 in human RD cells assessed as reduction in Akt phosphorylation at Ser473 site at 20 uM incubated for 2 hrs in presence of insulin by Western blot analysis. The series is classed as cell-based.
Series [3] is described as follows: Aqueous solubility of the compound. The series is classed as physicochemical.

Take `CC(=O)/C=C/c1cnc2ccc(-c3ccc(F)nc3)cc2c1Nc1cccc(C(F)(F)F)c1`: in series [1], half-maximal cytotoxicity (CC50 at 96 h) was put at 2230 nM.
Take `O=c1ccc2cnc3ccc(-c4cccnc4F)cc3c2n1-c1cccc(C(F)(F)F)c1`: the inhibition entry on mTORC1 (Homo sapiens) and at mTORC2 (Homo sapiens) was “Active” each time. The IC50 (commonly the concentration needed to halve the response being measured) in the series on Enterovirus A71 is 59 nM. For the same molecule, the CC50 (in general, the concentration giving 50% cytotoxicity) at 96 h in series [1] came out at 1230 nM. The Ratio in series [2] was found to be 5.
The molecule `COC(=O)/C=C/c1ccc2ncc3oc(=O)n(-c4cccc(C(F)(F)F)c4)c3c2c1` returned a CC50 at 96 h in series [1] of 72000 nM.
With `CN1CCN(c2ccc(-c3ccc4ncc5ccc(=O)n(-c6cccc(C(F)(F)F)c6)c5c4c3)cn2)CC1`, the inhibition result on mTORC1 (Homo sapiens) was “Active”. The IC50 in the series with Enterovirus A71 was 90 nM. The molecule also showed a CC50 at 96 h in series [1] of 180 nM. The Ratio in series [2] is 15.
For `NC(=O)NC/C=C/c1ccc2ncc3oc(=O)n(-c4cccc(C(F)(F)F)c4)c3c2c1`, the inhibition entry on mTORC1 (Homo sapiens) and at mTORC2 (Homo sapiens) was “inactive” each time. Also, the IC50 in the series with Enterovirus A71 stood at 48900 nM. For the same molecule, the CC50 at 96 h in series [1] was found to be 66600 nM.
For `O=c1ccc2cnc3ccc(-c4ccc(N5CCCC5)nc4)cc3c2n1-c1cccc(C(F)(F)F)c1`, the inhibition entry at mTORC1 (Homo sapiens) and at mTORC2 (Homo sapiens) was “Active” each time. Besides, the IC50 in the series with Enterovirus A71 is 2470 nM. The molecule further displayed a CC50 at 96 h in series [1] of 1790 nM.
As for `CCC(=O)Nc1ccc(-c2ccc3ncc4ccc(=O)n(-c5cccc(C(F)(F)F)c5)c4c3c2)cn1`, the inhibition entry at mTORC1 (Homo sapiens) and on mTORC2 (Homo sapiens) was “Active” each time. Further, the IC50 in the series on Enterovirus A71 is 27 nM. Moreover, the CC50 at 96 h in series [1] worked out at 40 nM.
`CC(=O)/C=C/c1cnc2ccc(-c3ccc(N)cc3)cc2c1Nc1cccc(C(F)(F)F)c1`: the inhibition result at mTORC1 (Homo sapiens) and on mTORC2 (Homo sapiens) was “inactive” throughout. Besides, in the series with Enterovirus A71, the IC50 was 5140 nM. In series [1], this molecule came in with a CC50 at 96 h of 5140 nM.
On to `COc1cncc(-c2ccc3ncc4oc(=O)n(-c5cccc(C(F)(F)F)c5)c4c3c2)c1`, for which, in series [1], the CC50 at 96 h came to 68500 nM.
Turning to `CN(C)c1ccc(-c2ccc3ncc4ccc(=O)n(-c5cccc(C(F)(F)F)c5)c4c3c2)cn1`, the inhibition result at mTORC1 (Homo sapiens) and on mTORC2 (Homo sapiens) was “Active” in each case. In addition, in the series with Enterovirus A71, the IC50 is 270 nM. In series [1], this molecule showed a CC50 at 96 h of 170 nM.
Regarding `Cc1ccc(-c2ccc3ncc4oc(=O)n(-c5cccc(C(F)(F)F)c5)c4c3c2)cn1`, the inhibition entry on mTORC1 (Homo sapiens) and on mTORC2 (Homo sapiens) was “inactive” throughout. In addition, in the series with Enterovirus A71, the IC50 amounted to 4780 nM. In series [1], this molecule displayed a CC50 at 96 h of 16900 nM.
Molecule `COc1ncccc1-c1ccc2ncc3ccc(=O)n(-c4cccc(C(F)(F)F)c4)c3c2c1` gave a CC50 at 96 h in series [1] of more than 200000 nM.
Take `CC(C)(C)OC(=O)Nc1ccc(-c2ccc3ncc4ccc(=O)n(-c5cccc(C(F)(F)F)c5)c4c3c2)cn1`: the inhibition result at mTORC1 (Homo sapiens) and on mTORC2 (Homo sapiens) was “Active” throughout. Also, the IC50 in the series with Enterovirus A71 came to 2470 nM. This molecule also returned a CC50 at 96 h in series [1] of 690 nM.
For the molecule `CCCCC(=O)Nc1ccc(-c2ccc3ncc4ccc(=O)n(-c5cccc(C(F)(F)F)c5)c4c3c2)cn1`, the inhibition result on mTORC1 (Homo sapiens) and at mTORC2 (Homo sapiens) was “Active” throughout. Moreover, the IC50 in the series with Enterovirus A71 came to 200 nM. The CC50 at 96 h in series [1] was 700 nM.
Consider `CC(C)C(=O)Nc1ccc(-c2ccc3ncc4ccc(=O)n(-c5cccc(C(F)(F)F)c5)c4c3c2)cn1`, for which the inhibition result at mTORC1 (Homo sapiens) and on mTORC2 (Homo sapiens) was “Active” in each case. Moreover, the IC50 in the series with Enterovirus A71 was 820 nM. For the same molecule, in series [1], the midpoint of cytotoxicity, the CC50 at 96 h, lay at 460 nM.
With `O=c1ccc2cnc3ccc(-c4ccc(F)nc4)cc3c2n1-c1cccc(C(F)(F)F)c1`, the inhibition result at mTORC1 (Homo sapiens) and on mTORC2 (Homo sapiens) was “Active” in each case. Moreover, the IC50 in the series with Enterovirus A71 came to 70 nM. The molecule further had a CC50 at 96 h in series [1] of 230 nM.
Take `CCCC(=O)Nc1ccc(-c2ccc3ncc4ccc(=O)n(-c5cccc(C(F)(F)F)c5)c4c3c2)cn1`: the inhibition result at mTORC1 (Homo sapiens) and on mTORC2 (Homo sapiens) was “Active” in each case. The IC50 in the series with Enterovirus A71 is 170 nM. Moreover, the midpoint of cytotoxicity in series [1], the CC50 at 96 h, lay at 750 nM.
Regarding `O=C(Cc1ccccc1)Nc1ccc(-c2ccc3ncc4ccc(=O)n(-c5cccc(C(F)(F)F)c5)c4c3c2)cn1`, the inhibition result on mTORC1 (Homo sapiens) and at mTORC2 (Homo sapiens) was “Active” throughout. For the same molecule, the half-maximal inhibitory concentration (IC50) in the series with Enterovirus A71 was determined as 560 nM. The CC50 at 96 h in series [1] was 740 nM.
For the molecule `CC(=O)/C=C/c1cnc2ccc(-c3cnc4ccccc4c3)cc2c1Nc1cccc(C(F)(F)F)c1`, the CC50 at 96 h in series [1] came out at 680 nM.
Consider `CC(=O)/C=C/c1cnc2ccc(-c3cccc(N)c3)cc2c1Nc1cccc(C(F)(F)F)c1`, for which, in series [1], the CC50 at 96 h is more than 200000 nM.
`COc1ccc(-c2ccc3ncc4ccc(=O)n(-c5cccc(C(F)(F)F)c5)c4c3c2)cn1`: the inhibition entry at mTORC1 (Homo sapiens) and on mTORC2 (Homo sapiens) was “Active” throughout. In addition, the IC50 with Enterovirus A71 is 40 nM. It took 130 nM to reach half-maximal cytotoxicity in series [1] (CC50 at 96 h).
With `Nc1cccc(Nc2ccc3ncc4ccc(=O)n(-c5cccc(C(F)(F)F)c5)c4c3c2)n1`, the inhibition entry at mTORC1 (Homo sapiens) and at mTORC2 (Homo sapiens) was “Active” each time. Further, the IC50 in the series on Enterovirus A71 is 2470 nM. In series [1], this molecule yielded a CC50 at 96 h of 5190 nM.
Take `N#C/C=C/c1ccc2ncc3oc(=O)n(-c4cccc(C(F)(F)F)c4)c3c2c1`: the CC50 at 96 h in series [1] was more than 200000 nM.
On the same count and under the same terms, under `O=c1oc2cnc3ccc(-c4cnc5ccccc5c4)cc3c2n1-c1cccc(C(F)(F)F)c1` stands 68900 nM.
As for `Nc1cccc(Nc2ccc3ncc4ccc(=O)n(-c5cccc(C(F)(F)F)c5)c4c3c2)c1`, the inhibition entry on mTORC1 (Homo sapiens) and at mTORC2 (Homo sapiens) was “Active” each time. Further, the IC50 in the series on Enterovirus A71 came out at 890 nM. Besides, the midpoint of cytotoxicity in series [1], the CC50 at 96 h, lay at 7580 nM.
Consider `O=C(Nc1ccc(-c2ccc3ncc4ccc(=O)n(-c5cccc(C(F)(F)F)c5)c4c3c2)cn1)Oc1ccccc1`, for which the inhibition result on mTORC1 (Homo sapiens) and at mTORC2 (Homo sapiens) was “Active” in each case. Further, the IC50 with Enterovirus A71 turned out to be 90 nM. The molecule further displayed a CC50 at 96 h in series [1] of 200 nM.
In the case of `CO[C@H]1C[C@@H]2CC[C@@H](C)[C@@](O)(O2)C(=O)C(=O)N2CCCC[C@H]2C(=O)O[C@H]([C@H](C)C[C@@H]2CC[C@@H](O)[C@H](OC)C2)CC(=O)[C@H](C)/C=C(\C)[C@@H](O)[C@@H](OC)C(=O)[C@H](C)C[C@H](C)/C=C/C=C/C=C/1C`, the inhibition result on mTORC1 (Homo sapiens) is “Active”.
For `O=c1ccc2cnc3ccc(-c4ccc(N5CCOCC5)nc4)cc3c2n1-c1cccc(C(F)(F)F)c1`, the inhibition result at mTORC1 (Homo sapiens) and at mTORC2 (Homo sapiens) was “Active” throughout. The IC50 in the series on Enterovirus A71 came to 2630 nM. This molecule also registered a CC50 at 96 h in series [1] of 2910 nM.
With `O=C1Cc2cc(-c3ccc4ncc5ccc(=O)n(-c6cccc(C(F)(F)F)c6)c5c4c3)ccc2N1`, at mTORC1 (Homo sapiens), the inhibition entry was “Active”. The IC50 in the series with Enterovirus A71 was found to be 7400 nM. The molecule also registered a CC50 at 96 h in series [1] of 10300 nM.
`COc1cncc(-c2ccc3ncc(/C=C/C(C)=O)c(Nc4cccc(C(F)(F)F)c4)c3c2)c1` had a CC50 at 96 h in series [1] of more than 200000 nM.
Consider `Nc1ccc(-c2ccc3ncc4ccc(=O)n(-c5cccc(C(F)(F)F)c5)c4c3c2)cn1`, for which, in series [3], the solubility – broadly, the concentration that dissolves in the medium under given conditions – came to 1.29 µg/mL (≈ 2.98 µM). The IC50 in the series with Enterovirus A71 was found to be 10 nM.
For `O=C(Nc1ccc(-c2ccc3ncc4ccc(=O)n(-c5cccc(C(F)(F)F)c5)c4c3c2)cn1)OCc1ccccc1`, the inhibition entry at mTORC1 (Homo sapiens) and on mTORC2 (Homo sapiens) was “Active” each time. In the series with Enterovirus A71, the IC50 amounted to 23700 nM. This molecule yielded a CC50 at 96 h in series [1] of 1000 nM.
